From patent US11851431B2, “Tricyclic Janus kinase 1 inhibitors, and compositions and methods thereof” (LYNK PHARMACEUTICALS CO. LTD., priority 2018, dated 2023)

Assays:
JAK1 = target: T1, JAK1 (Homo sapiens, UniProt P23458); assay: JAK biochemical microfluidic assay (Caliper EZ Reader), JAK1; conditions: 1 mM ATP; head prints (5 nM)
T1 construct: purchased Carna Biosciences
Description: (§1) JAK activity was determined in the reaction buffer 50 mM HEPES, 0.01% Brij35, 10 mM MgCl2, 2 mM DTT by a microfluidic assay. The phosphorylation of a FAM labeled peptide substrate was monitored in the Caliper EZ Reader II (Perkin Elmer). The assay condition for each batch of enzyme (Carna Biosciences) was optimized to obtain 10% conversion rate of peptide substrate.
(§2) The test compounds were dissolved in DMSO to a stock concentration of 10 mM. Three-fold serially diluted compounds with top concentration of 5 μM were pre-incubated with JAK1, JAK2 or TYK2 for 10 min at ambient temperature. The final DMSO concentration of assay mixture was 1%. […] The reaction was stopped by adding 50 mM EDTA.
(§3) The percent inhibition was calculated by the following formula. % Inhibition=(Conversionmax−Conversionsample)/(Conversionmax−Conversionmin)*100 Conversionmax means the conversion rate in the positive well without addition of compound • […] means the conversion rate in the well without addition of enzyme • Conversionsample means the conversion rate of test compounds
(§4) The dose-response (percent inhibition) curve was plotted and IC50 values were determined by GraphPad software.

TYK2 = target: T2, TYK2 (Homo sapiens, UniProt P29597); assay: JAK biochemical microfluidic assay (Caliper EZ Reader), TYK2; conditions: 1 mM ATP; head prints (2.5 nM)
T2 construct: purchased Carna Biosciences
Description: as §1, §2, §3, §4

JAK2 = target: T3, JAK2 (Homo sapiens, UniProt O60674); assay: JAK biochemical microfluidic assay (Caliper EZ Reader), JAK2; conditions: 1 mM ATP; head prints (0.25 nM)
T3 construct: purchased Carna Biosciences
Description: as §1, §2, §3, §4

BaF3-TEL-JAK1 = assay: Anti-proliferative assay, BaF3-TEL-JAK1 cells; type: cell-based; conditions: 72 h, Cell-Titer Glo
Description: (§5) Dimerization domain of Tel protein fused with JAK kinase domain was permanently transduced into BaF3 cells, whose proliferation is dependent on JAK activity in the absence of IL-3 induction. These engineered BaF3-Tel-JAK cells were used to monitor JAK inhibitory activities of the compounds in the cellular.
(§6) BaF3-Tel-JAK cells were cultured in RPMI-1640 (Corning) containing 10% fetal bovine serum. Cells were seeded at 2000/well of white flat bottom 96-well plates. The well containing medium only was used as background control. After 24h growth, cells were treated with compounds. The test compounds were dissolved in DMSO to a stock concentration of 10 mM. 3-fold serially diluted compounds for 9 concentrations with top concentration of 10 μM was added into the each well. The final DMSO concentration was 0.2%. The cells continued to grow at 37° C. in 5% CO2 for 72 h after compound treatment. The viability was measured by cellular ATP determination using the Cell-Titer Glo luciferase reagent (Promega). The Luminescence value was recorded by a multi-label reader Envision (PerkinElmer). Values were transformed to percent inhibition using the following formula. % Inhibition=(Readoutmax−Readoutsample)/(Readoutmax−Readoutmin)*100
(§7) The well without compound but with equivalent DMSO was defined as Readout max
(§8) The well with only medium and equivalent DMSO was defined as Readout min
(§9) The dose-response (percent inhibition) curve was plotted and GI50 values (the concentration that causes 50% growth inhibition) were determined by GraphPad software.

BaF3-TEL-JAK2 = assay: Anti-proliferative assay, BaF3-TEL-JAK2 cells; type: cell-based; conditions: 72 h, Cell-Titer Glo
Description: as §5, §6, §7, §8, §9

T3 sequence (O60674 whole entry): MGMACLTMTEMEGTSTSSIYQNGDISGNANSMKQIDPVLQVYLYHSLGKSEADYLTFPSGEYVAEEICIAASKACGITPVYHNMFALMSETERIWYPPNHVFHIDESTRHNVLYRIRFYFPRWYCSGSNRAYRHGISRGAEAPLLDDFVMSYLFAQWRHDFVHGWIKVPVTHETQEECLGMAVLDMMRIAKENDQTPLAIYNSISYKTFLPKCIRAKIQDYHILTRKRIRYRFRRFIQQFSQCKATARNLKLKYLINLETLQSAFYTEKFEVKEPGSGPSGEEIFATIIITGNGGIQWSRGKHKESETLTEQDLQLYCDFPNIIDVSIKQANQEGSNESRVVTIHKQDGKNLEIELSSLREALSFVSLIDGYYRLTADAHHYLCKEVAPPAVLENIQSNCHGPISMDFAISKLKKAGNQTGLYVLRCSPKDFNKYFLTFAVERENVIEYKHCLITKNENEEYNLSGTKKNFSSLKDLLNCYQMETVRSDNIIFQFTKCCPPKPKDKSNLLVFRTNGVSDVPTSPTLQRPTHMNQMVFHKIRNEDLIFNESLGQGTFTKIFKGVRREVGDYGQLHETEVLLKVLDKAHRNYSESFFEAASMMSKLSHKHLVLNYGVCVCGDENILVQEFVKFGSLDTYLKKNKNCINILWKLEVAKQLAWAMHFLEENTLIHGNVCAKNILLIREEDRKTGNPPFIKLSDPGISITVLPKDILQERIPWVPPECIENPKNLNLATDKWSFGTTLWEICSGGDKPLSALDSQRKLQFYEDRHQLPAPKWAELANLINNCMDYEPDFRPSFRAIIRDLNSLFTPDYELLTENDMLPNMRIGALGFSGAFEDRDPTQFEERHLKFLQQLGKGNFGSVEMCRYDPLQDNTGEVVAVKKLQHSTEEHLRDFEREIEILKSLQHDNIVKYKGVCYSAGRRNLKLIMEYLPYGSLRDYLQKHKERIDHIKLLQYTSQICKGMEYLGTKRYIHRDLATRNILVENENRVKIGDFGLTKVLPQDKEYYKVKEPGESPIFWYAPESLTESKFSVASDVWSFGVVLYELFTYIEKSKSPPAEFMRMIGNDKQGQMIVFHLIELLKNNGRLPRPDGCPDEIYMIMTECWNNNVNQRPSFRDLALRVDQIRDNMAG
T2 sequence (P29597 whole entry): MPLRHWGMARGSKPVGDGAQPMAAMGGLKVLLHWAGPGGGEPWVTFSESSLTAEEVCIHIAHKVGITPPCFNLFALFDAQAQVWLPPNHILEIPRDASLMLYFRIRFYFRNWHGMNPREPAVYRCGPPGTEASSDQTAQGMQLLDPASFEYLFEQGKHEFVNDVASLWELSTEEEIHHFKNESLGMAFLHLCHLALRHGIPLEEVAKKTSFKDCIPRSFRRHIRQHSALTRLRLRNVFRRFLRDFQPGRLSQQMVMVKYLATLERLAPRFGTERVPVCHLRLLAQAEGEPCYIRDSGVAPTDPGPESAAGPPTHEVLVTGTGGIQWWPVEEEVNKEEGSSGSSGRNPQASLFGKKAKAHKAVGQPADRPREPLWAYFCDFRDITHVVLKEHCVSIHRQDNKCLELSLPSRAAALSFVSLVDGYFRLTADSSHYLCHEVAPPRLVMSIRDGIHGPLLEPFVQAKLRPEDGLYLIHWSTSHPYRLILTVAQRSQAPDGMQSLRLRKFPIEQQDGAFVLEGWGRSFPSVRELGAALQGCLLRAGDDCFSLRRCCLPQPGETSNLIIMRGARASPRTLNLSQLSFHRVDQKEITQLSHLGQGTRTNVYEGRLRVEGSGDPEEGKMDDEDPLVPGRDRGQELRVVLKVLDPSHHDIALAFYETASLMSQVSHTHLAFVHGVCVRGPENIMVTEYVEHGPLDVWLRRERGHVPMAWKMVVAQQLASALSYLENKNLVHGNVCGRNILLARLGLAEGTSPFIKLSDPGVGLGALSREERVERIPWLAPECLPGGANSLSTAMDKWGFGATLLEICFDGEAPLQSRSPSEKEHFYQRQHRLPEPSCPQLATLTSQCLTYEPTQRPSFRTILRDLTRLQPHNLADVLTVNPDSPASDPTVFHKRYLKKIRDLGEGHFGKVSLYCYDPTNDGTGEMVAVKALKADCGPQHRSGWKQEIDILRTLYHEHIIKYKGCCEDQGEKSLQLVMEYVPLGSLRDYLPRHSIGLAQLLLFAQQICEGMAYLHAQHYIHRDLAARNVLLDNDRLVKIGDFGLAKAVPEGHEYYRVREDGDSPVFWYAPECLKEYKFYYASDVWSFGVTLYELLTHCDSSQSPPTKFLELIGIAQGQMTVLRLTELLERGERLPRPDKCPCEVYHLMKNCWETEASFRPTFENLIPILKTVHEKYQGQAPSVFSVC
T1 sequence (P23458 whole entry): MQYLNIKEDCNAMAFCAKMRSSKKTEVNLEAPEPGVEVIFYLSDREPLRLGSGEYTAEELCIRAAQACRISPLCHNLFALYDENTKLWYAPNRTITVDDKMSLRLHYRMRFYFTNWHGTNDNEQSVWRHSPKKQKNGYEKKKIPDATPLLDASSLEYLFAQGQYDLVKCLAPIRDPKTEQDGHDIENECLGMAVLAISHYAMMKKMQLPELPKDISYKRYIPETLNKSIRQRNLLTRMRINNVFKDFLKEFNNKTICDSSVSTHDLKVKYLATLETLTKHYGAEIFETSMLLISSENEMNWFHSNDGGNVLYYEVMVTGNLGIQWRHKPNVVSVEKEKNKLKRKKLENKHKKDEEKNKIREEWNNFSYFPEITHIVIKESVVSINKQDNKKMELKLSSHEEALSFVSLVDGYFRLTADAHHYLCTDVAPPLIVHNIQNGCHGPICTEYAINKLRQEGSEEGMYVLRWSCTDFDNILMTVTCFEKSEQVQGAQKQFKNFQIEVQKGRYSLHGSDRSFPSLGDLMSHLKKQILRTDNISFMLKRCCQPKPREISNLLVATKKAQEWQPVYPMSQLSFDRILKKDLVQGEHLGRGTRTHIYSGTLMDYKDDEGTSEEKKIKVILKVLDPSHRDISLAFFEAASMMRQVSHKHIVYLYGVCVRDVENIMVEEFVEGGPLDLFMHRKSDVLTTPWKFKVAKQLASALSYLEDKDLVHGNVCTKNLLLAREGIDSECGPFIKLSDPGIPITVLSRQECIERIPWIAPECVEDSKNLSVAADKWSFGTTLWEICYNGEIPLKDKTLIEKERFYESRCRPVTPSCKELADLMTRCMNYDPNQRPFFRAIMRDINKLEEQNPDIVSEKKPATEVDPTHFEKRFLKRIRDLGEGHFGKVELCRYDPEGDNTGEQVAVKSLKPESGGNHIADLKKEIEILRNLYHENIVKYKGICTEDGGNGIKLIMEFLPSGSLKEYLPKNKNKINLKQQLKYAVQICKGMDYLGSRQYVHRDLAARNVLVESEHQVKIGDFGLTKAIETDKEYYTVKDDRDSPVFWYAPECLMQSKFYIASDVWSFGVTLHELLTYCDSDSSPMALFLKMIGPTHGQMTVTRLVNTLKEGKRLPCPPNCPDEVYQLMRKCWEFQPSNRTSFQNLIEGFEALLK

Compound | IC50 (JAK1) [nM] | IC50 (TYK2) [nM] | IC50 (JAK2) [nM] | GI50 (BaF3-TEL-JAK1) [nM] | GI50 (BaF3-TEL-JAK2) [nM]
CC(C)(C)OC(=O)NC12CC(n3cnc4cnc5[nH]ccc5c43)(C1)C2 [Example 1i, Tert-butyl (3-(imidazo[4,5-d]pyrrolo[2,3-b]pyridin-1(6H)-yl)bicyclo[1.1.1]pentan-1-yl)carbamate] | 43 | 2880 | 472 | – | –
CCCS(=O)(=O)N[C@H]1C[C@@H](n2cnc3cnc4[nH]ccc4c32)C1 [Example 2, N-(Cis-3-(imidazo[4,5-d]pyrrolo[2,3-b]pyridin-1(6H)-yl)cyclobutyl)propane-1-sulfonamide] | 69.2 | 2850 | 1090 | 352 | 2300
CCCS(=O)(=O)N[C@H]1C[C@H](n2cnc3cnc4[nH]ccc4c32)C1 [Example 3, N-(trans-3-(imidazo[4,5-d]pyrrolo[2,3-b]pyridin-1(6H)-yl)cyclobutyl)propane-1-sulfonamide] | 190 | 3660 | 1540 | 1090 | 2540
CC(C)CS(=O)(=O)NC12CC(n3cnc4cnc5[nH]ccc5c43)(C1)C2 [Example 5, N-(3-(imidazo[4,5-d]pyrrolo[2,3-b]pyridin-1(6H)-yl)bicyclo[1.1.1]pentan-1-yl)-2-methylpropane-1-sulfonamide] | 5.53 | 111 | 145 | 10 | 380
COCCS(=O)(=O)NC12CC(n3cnc4cnc5[nH]ccc5c43)(C1)C2 [Example 6, N-(3-(imidazo[4,5-d]pyrrolo[2,3-b]pyridin-1(6H)-yl)bicyclo[1.1.1]pentan-1-yl)-2-methoxyethanesulfonamide] | 24.4 | 1050 | 597 | – | –
O=S(=O)(NC12CC(n3cnc4cnc5[nH]ccc5c43)(C1)C2)C1CC1 [Example 7, N-(3-(imidazo[4,5-d]pyrrolo[2,3-b]pyridin-1(6H)-yl)bicyclo[1.1.1]pentan-1-yl)cyclopropanesulfonamide] | 45.3 | 574 | 470 | – | –
O=C(CCC(F)(F)F)NC12CC(n3cnc4cnc5[nH]ccc5c43)(C1)C2 [Example 18, 4,4,4-Trifluoro-N-(3-(imidazo[4,5-d]pyrrolo[2,3-b]pyridin-1(6H)-yl)bicyclo[1.1.1]pentan-1-yl)butanamide] | 18.7 | – | 167 | 120 | 291
N#CC1CCN(S(=O)(=O)NC23CC(n4cnc5cnc6[nH]ccc6c54)(C2)C3)C1 (stereo not drawn) [Example 20, 3-Cyano-N-(3-(imidazo[4,5-d]pyrrolo[2,3-b]pyridin-1(6H)-yl)bicyclo[1.1.1]pentan-1-yl)pyrrolidine-1-sulfonamide] | 8.3 | 200 | 334 | – | –
O=S(=O)(NC12CC(n3cnc4cnc5[nH]ccc5c43)(C1)C2)N1CC(F)(F)C1 [Example 23, 3,3-difluoro-N-(3-(imidazo[4,5-d]pyrrolo[2,3-b]pyridin-1(6H)-yl)bicyclo[1.1.1]pentan-1-yl)azetidine-1-sulfonamide] | 3.4 | 33.5 | 50.8 | 41.6 | 148
O=S(=O)(NC12CC(n3cnc4cnc5[nH]ccc5c43)(C1)C2)c1ccc(Cl)cc1 [Example 28, 4-Chloro-N-(3-(imidazo[4,5-d]pyrrolo[2,3-b]pyridin-1(6H)-yl)bicyclo[1.1.1]pentan-1-yl)benzenesulfonamide] | 6.7 | 413 | 259 | 51 | 286
O=C(NCC(F)(F)F)NC12CC(n3cnc4cnc5[nH]ccc5c43)(C1)C2 [Example 41, 1-(3-(Imidazo[4,5-d]pyrrolo[2,3-b]pyridin-1(6H)-yl)bicyclo[1.1.1]pentan-1-yl)-3-(2,2,2-trifluoroethyl)urea] | 8.5 | – | 94.6 | 99.6 | 1000
